Measured values published in patent publication US6949556B2, “Acylated 1,2,3,4-tetrahydronaphthyl amines and their use as pharmaceutical agents” (Aventis Pharma Deutschland GmbH, priority 2001, dated 2005).

Molecular target: eNOS promoter
Assay: Activation of eNOS transcription (eNOS promoter firefly luciferase reporter)
Type: cell-based
Conditions: EC50 of transcription induction ratio (TIR) vs compound concentration, determined graphically; stably transfected human endothelial cell line, 18 h incubation
Experimental: Activation of eNOS transcription was measured as described in detail in Li et al. “Activation of protein kinase C alpha and/or epsilon enhances transcription of the human endothelial nitric oxide synthase gene”, Mol. Pharmacol. 1998; 53: 630-637. Briefly, a 3.5 kB long fragment 5′ of the starting codon of the eNOS gene was cloned, sequenced and cloned in firefly luciferase expression plasmids to monitor activation of the eNOS promoter by reporter gene activity. A human endothelial cell line stable transfected and expressing this promoter-reporter construct was used for compound testing. Cells were incubated for 18 h with compounds.
All compounds were dissolved in sterile DMSO. A final concentration of 0.5% DMSO in complete medium was allowed. Induction of reporter gene expression in these cells was measured using a standard luciferase assay system (Promega, Cat. No E150) according to the manufacturer's instructions. Luciferase induction in cells incubated with compounds were compared to those incubated with solvent alone. The ratio of both activities (transcription induction ratio, TIR) was plotted as a function of compound concentration. Typically, TIR values started at low concentrations at a ratio of 1, indicating no compound effect, and extended up to a maximum TIR value TIR(max) which indicates the increase of the eNOS transcription. EC50 values of transcription induction ratios as a function of compound concentration were determined graphically.

SMILES | EC50 [µM]
O=C(N[C@@H]1CCc2ccccc2C1)c1onc2ccccc12 [Compound 64, Benzo[c]isoxazole-3-carboxylic acid N-(R)-(1,2,3,4-tetrahydro-naphthalen-2-yl)-amide] | 15.2
CCCc1c(C(=O)N[C@@H]2CCc3ccccc3C2)cnn1-c1cc(Cl)cc(Cl)c1 [Compound 66, 1-(3,5-Dichloro-phenyl)-5-propyl-1H-pyrazole-4-carboxylic acid N-(R)-(1,2,3,4-tetrahydro-naphthalen-2-yl)-amide] | 5.86
CCCc1c(C(=O)N[C@H]2CCc3ccccc3C2)cnn1-c1cc(Cl)cc(Cl)c1 [Compound 67, 1-(3,5-Dichloro-phenyl)-5-propyl-1H-pyrazole-4-carboxylic acid N-(S)-(1,2,3,4-tetrahydro-naphthalen-2-yl)-amide] | 23.5

The remaining molecules from weak to strong by EC50, led by results:

EC50 [µM] | SMILES
4.47 | O=C(N[C@@H]1CCc2ccccc2C1)c1cncc(-c2cccs2)c1 [Compound 62, N-(R)-1,2,3,4-Tetrahydro-naphthalen-2-yl-5-thiophen-2-yl-nicotinamide]
0.3 | O=C(N[C@H]1CCc2ccccc2C1)c1cncc(-c2cccs2)c1 [Compound 63, N-(S)-1,2,3,4-Tetrahydro-naphthalen-2-yl-5-thiophen-2-yl-nicotinamide]
0.19 | O=C(N[C@H]1CCc2ccccc2C1)c1ccncc1 [Compound 69, (S)-N-(1,2,3,4-Tetrahydro-naphthalen-2-yl)-isonicotinamide]
